These are literature values, as cited in patent US9339030B2, “Foamable pesticide compositions and methods of application” (BASF Corporation, priority 2009, dated 2016).

Each structure is given as a SMILES string.

The test system of one data set is termites. The note with it: general statement, no experiment described.
Another data set has as its system ants. The note with it: general statement, no experiment described.

For the molecule `N#Cc1nn(-c2c(Cl)cc(C(F)(F)F)cc2Cl)c(N)c1[S+]([O-])C(F)(F)F` (racemic) [fipronil, (±)-5-amino-1-(2,6-dichloro-α,α,α-trifluoro-p-tolyl)-4-trifluoromethylsulfinylpyrazole-3-carbonitrile], in the data set with termites, the “dose toxic to termites” value was 2 nanograms per termite. For the same molecule, the “dose toxic to ants” value in the data set on ants is “about 1 nanogram per ant”.
